Data reported in patent US12486279B2, “Indole alkaloid with fungicidal effect” (priority 2020, dated 2025).
Converted amounts (≈) assume the structure as drawn. Where two headings read alike, the source gives them in different places.

How the values were obtained:
Fusarium oxysporum = test: Minimum inhibitory concentration (MIC), Fusarium oxysporum; type: cell-based; conditions: for Trend of absorbance with concentration: FIG. 6, 2 days; for Growth of the fungus on plates: 15.62-2000 mg/mL
various fish species = conditions: 48 to 96 h after exposure; cited from earlier work
[1] = system: Colletotrichum gloeosporioides; test: Minimum inhibitory concentration (MIC), triphenyl tetrazolium chloride reduction, Colletotrichum gloeosporioides; type: cell-based; conditions: for Growth of the fungus on plates: 7.81 to 250 mg/mL, analyst 1; for Growth of the fungus on plates / Absorbance compared with the control: both days; for MIC: Colletotrichum gloeosporioides; for Absorbance compared with the control: all 8 concentrations
Method: First, its effect on the growth of samples of Colletotrichum gloeosporioides was assessed. The weighting of the activity was established in a spectrophotometric model through the reduction of Triphenyl Tetrazolium Chloride as a measure of […] metabolism (oxide reduction system). The C. gloeosporioides samples were incubated for 24 h at 37° C. in the presence of increasing amounts of Andranone and the control agents Chlorothalonil and Mancozeb. After the indicated time, the amount of formazan produced was assessed by colorimetry, which is indicative of the amount of viable fungal cells after the treatments.

small fish = conditions: cited from earlier work
Daphnia magna = conditions: cited from earlier work
[2] = acidic or neutral conditions; cited from earlier work
[3] = system: women exposed to Mancozeb; conditions: exposed women (Van Wendel de Joode et al. 2014); cited from earlier work
agricultural workers = conditions: exposed agricultural workers (Dennis et al. 2010); cited from earlier work
[4] = 6 technical replicates, 2 days, with standard deviation, 24 h at 37° C.

## N#Cc1c(Cl)c(Cl)c(Cl)c(C#N)c1Cl [Chlorothalonil, tetrachloro-isophthalonitrile]
Fusarium oxysporum
  Trend of absorbance with concentration: trend similar to that of Mancozeb
Fusarium oxysporum; Fusarium oxysporum, average of a biological replica on 2 different days
  MIC: 1 mg/mL (≈ 3.76 mM)
Fusarium oxysporum; at the concentration at which the MIC was established, average of 2 days
  Absorbance (570 nm): 0.45 ± 0.04
Fusarium oxysporum; class from MIC
  Inhibition Type: Moderate (a moderate inhibition occurs in compounds with a MIC between 0.6 to 1 mg/mL)
Fusarium oxysporum; day 1
  Growth of the fungus on plates: the fungus was not able to grow in the highest concentrations of this fungicide
Fusarium oxysporum; day 2
  Growth of the fungus on plates: a slight growth of the fungus was observed, mainly at concentrations of 125 to 2000 mg/mL
Various fish species
  Median lethal toxicity values (LC50): less than 20 μg/L
[1]
  Growth of the fungus on plates: the fungus was not able to grow in any of the evaluated concentrations
  Absorbance compared with the control: lower absorbances than the control in the 8 concentrations
[1]; 6 technical replicates, 2 days, with standard deviation, 24 h at 37° C., read-out: Minimum inhibitory concentration (MIC), Average Analyst 1
  MIC: 7.8 mg/mL (≈ 29.3 mM)
[1]; 6 technical replicates, 2 days, with standard deviation, 24 h at 37° C., read-out: Minimum inhibitory concentration (MIC), Average Analyst 2
  MIC: 23.4 ± 22.1 mg/mL (≈ 88 mM)
[1]; average of 2 analysts, with standard deviation, read-out: Minimum inhibitory concentration (MIC), Average
  MIC: 15.6 ± 11 mg/mL (≈ 58.7 mM)
Small fish
  Concentration decreasing eggs per spawning, hatchability of eggs and survival of the fry: 6.5 ng/mL
Daphnia magna
  Concentration causing a delay in reproduction: 32 ng/mL
[2]
  Stability to hydrolysis: stable to hydrolysis

## Mancozeb
Fusarium oxysporum
  Trend of absorbance with concentration: the absorbance increases as the concentration of this compound increase
Fusarium oxysporum; both days, no change in salt color
  Growth of the fungus on plates: a slight growth of the fungus was observed, mainly at concentrations of 250 to 2000 mg/mL
[1]; [4]
  Minimum inhibitory concentration (MIC), Average Analyst 1: 7.8 ± 0.0 mg/mL
  Minimum inhibitory concentration (MIC), Average Analyst 2: 15.6 ± 11.0 mg/mL
[1]
  Growth of the fungus on plates: no growth of the fungus was observed in any of the concentrations evaluated
  Absorbance compared with the control: the absorbance is lower compared to the absorbance of the control
[1]; average of 2 analysts, with standard deviation
  Minimum inhibitory concentration (MIC), Average: 11.7 ± 5.5 mg/mL
[3]
  Ethylene thiourea (ETU) in urine: elevated levels of ethylene thiourea in urine
Agricultural workers
  Risk of developing cutaneous melanoma: significantly increases the risk of developing cutaneous melanoma
